Data as given in ChEMBL document CHEMBL4130359, “Indazole-based ligands for estrogen-related receptor α as potential anti-diabetic agents” (Eur J Med Chem, 2017).
Activity calls are given as the source filed them. No cut-off for these calls is given here.

Experiments:
Rattus norvegicus [1] = assay: Decrease in fed plasma insulin level in Zucker rat sub-chronic fa/fa prediabetic model assessed as change in plasma insulin level at 10 mg/kg, po qd for 4 days measured on day 5 relative to control; type: functional; parameters: scale not given: the % may be the effect or the level left
[2] = target: Sodium channel protein type 2 subunit alpha (Homo sapiens) (UniProt Q99250); assay: Activity at human Nav1.2 expressed in CHOK1 cells assessed as effect on channel current up to 10 uM by patch clamp method; type: cell-based
[3] = Cmax in ob/ob mouse at 18 mg/kg administered via oral gavage by LC-MS analysis; type: ADME, organism-based; parameters: dose 18 mg/kg, route oral; details: in vivo
[4] = AUC (0 to 24 hrs) in […] at 15 mg/kg administered via oral gavage by LC-MS analysis; type: ADME, organism-based; parameters: dose 15 mg/kg, time < 24 hr, route oral; details: in vivo
Rattus norvegicus [5] = assay: Antidiabetic activity in Zucker rat sub-chronic fa/fa prediabetic model assessed as fasting blood insulin level at 50 mg/kg, po qd for 31 days measured on day 29 post dose (reference value: 8.5 +/- 1.4 ug/L); type: functional
[6] = Cmax in Zucker rat sub-chronic fa/fa prediabetic model at 3 mg/kg, po qd for 26 days measured on day 26 post last dose; type: ADME, organism-based; parameters: dose 3 mg/kg, route oral; details: in vivo
[7] = Cmax in Zucker rat sub-chronic fa/fa prediabetic model at 50 mg/kg, po qd measured on day 1 post dose; type: ADME, organism-based; parameters: dose 50 mg/kg, route oral; details: in vivo
Rattus norvegicus [8] = assay: Toxicity in Zucker rat sub-chronic fa/fa prediabetic model assessed as body weight at 1 mg/kg, po qd for 29 days measured on day 29 post last dose (reference value: 533 +/- 10 g); type: organism-based; details: in vivo, 696 h
Rattus norvegicus [9] = assay: Toxicity in Zucker rat sub-chronic fa/fa prediabetic model assessed as body weight at 3 mg/kg, po qd for 29 days measured on day 29 post last dose (reference value: 533 +/- 10 g); type: organism-based; details: in vivo, 696 h
Rattus norvegicus [10] = assay: Toxicity in Zucker rat sub-chronic fa/fa prediabetic model assessed as epididymal white adipose tissue weight at 3 mg/kg, po qd for 31 days measured on day 32 (reference value: 13.9 +/- 0.6 g); type: organism-based; details: in vivo, 744 h
Rattus norvegicus [11] = assay: Toxicity in Zucker rat sub-chronic fa/fa prediabetic model assessed as brown adipose tissue weight at 10 mg/kg, po qd for 31 days measured on day 32 (reference value: 2.1 +/- 0.3 g); type: organism-based; details: in vivo, 744 h
Rattus norvegicus [12] = assay: Toxicity in Zucker rat sub-chronic fa/fa prediabetic model assessed as insulin level per gram pancreas at 1 mg/kg, po qd for 31 days measured on day 32 (reference value: 55.2 +/- 5.5 ug); type: organism-based; details: in vivo, 744 h
Rattus norvegicus [13] = assay: Toxicity in Zucker rat sub-chronic fa/fa prediabetic model assessed as serum triglyceride level at 50 mg/kg, po qd for 31 days measured on day 32 (reference value: 1382 +/- 268 mg/dl); type: organism-based; details: in vivo, 744 h
Rattus norvegicus [14] = assay: Toxicity in Zucker rat sub-chronic fa/fa prediabetic model assessed as serum cholesterol level at 50 mg/kg, po qd for 31 days measured on day 32 (reference value: 295 +/- 91 mg/dl); type: organism-based; details: in vivo, 744 h
[15] = Drug uptake in heart of Zucker rat sub-chronic fa/fa prediabetic model at 12.5 mg/kg, po qd for 11 days; type: ADME, organism-based; details: read-out: Drug uptake
Rattus norvegicus [16] = assay: Antidiabetic activity in Zucker rat sub-chronic fa/fa prediabetic model assessed as serum adiponectin level at 1 mg/kg, po qd for 4 days by ELISA (reference value: 9.1%); type: functional
[17] = AUC (0 to 24 hrs) in […] model at 50 mg/kg, po qd measured on day 1 post dose; type: ADME, organism-based; parameters: dose 50 mg/kg, time < 24 hr, route oral; details: in vivo
[18] = AUC (0 to 24 hrs) in […] model at 50 mg/kg, po qd for 28 days measured on day 28 post last dose; type: ADME, organism-based; parameters: dose 50 mg/kg, time < 24 hr, route oral; details: in vivo
Rattus norvegicus [19] = assay: Toxicity in […] chronic ob/ob model assessed as food intake at 3 mg/kg, po qd for 28 days measured on day 1 to 28 during compound dosing (reference value: 170.6 +/- 3 g); type: organism-based; details: in vivo, 672 h
Rattus norvegicus [20] = assay: Toxicity in […] chronic ob/ob model assessed as epididymal white adipose tissue weight at 10 mg/kg, po qd for 31 days measured on day 32 (reference value: 3.92 +/- 0.14 g); type: organism-based; details: in vivo, 744 h
Rattus norvegicus [21] = assay: Toxicity in […] chronic ob/ob model assessed as serum triglyceride level at 3 mg/kg, po qd for 31 days measured on day 32 (reference value: 329 +/- 36 mg/dl); type: organism-based; details: in vivo, 744 h
Rattus norvegicus [22] = assay: Toxicity in […] model assessed as serum cholesterol level at 50 mg/kg, po qd for 31 days measured on day 32 (reference value: 195 +/- 5.5 mg/dl); type: organism-based; details: in vivo, 744 h
Rattus norvegicus [23] = assay: Toxicity in […] model assessed as serum BUN level at 50 mg/kg, po qd for 31 days measured on day 32 (reference value: 28.3 +/- […]); type: organism-based; details: in vivo, 744 h
Rattus norvegicus [24] = assay: Antidiabetic activity in […] chronic ob/ob model assessed as increase in plasma adiponectin level administered po qd for 31 days measured on day 32 by ELISA; type: functional, organism-based
Rattus norvegicus [25] = assay: Effect on NDUFA5 gene expression in epididymal white adipose tissue of Zucker rat sub-chronic fa/fa prediabetic model at 10 mg/kg, po qd for 15 days by microarray analysis relative to control; type: functional
Rattus norvegicus [26] = assay: Effect on ATP5F1 gene expression in epididymal white adipose tissue of Zucker rat sub-chronic fa/fa prediabetic model at 10 mg/kg, po qd for 15 days by microarray analysis relative to control; type: functional
Rattus norvegicus [27] = assay: Effect on HSD17B4 gene expression in epididymal white adipose tissue of Zucker rat sub-chronic fa/fa prediabetic model at 10 mg/kg, po qd for 15 days by microarray analysis relative to control; type: functional
Rattus norvegicus [28] = assay: Effect on CHUK gene expression in epididymal white adipose tissue of Zucker rat sub-chronic fa/fa prediabetic model at 10 mg/kg, po qd for 15 days by microarray analysis relative to control; type: functional
Rattus norvegicus [29] = assay: Effect on STAT3 gene expression in epididymal white adipose tissue of Zucker rat sub-chronic fa/fa prediabetic model at 10 mg/kg, po qd for 15 days by microarray analysis relative to control; type: functional
Rattus norvegicus [30] = assay: Effect on EIF2B3 gene expression in epididymal white adipose tissue of Zucker rat sub-chronic fa/fa prediabetic model at 10 mg/kg, po qd for 15 days by microarray analysis relative to control; type: functional
Rattus norvegicus [31] = assay: Effect on MED24 gene expression in epididymal white adipose tissue of Zucker rat sub-chronic fa/fa prediabetic model at 10 mg/kg, po qd for 15 days by microarray analysis relative to control; type: functional
Rattus norvegicus [32] = assay: Effect on PCCB gene expression in epididymal white adipose tissue of Zucker rat sub-chronic fa/fa prediabetic model at 10 mg/kg, po qd for 15 days by microarray analysis relative to control; type: functional
Rattus norvegicus [33] = assay: Effect on Ckmt1 gene expression in epididymal white adipose tissue of Zucker rat sub-chronic fa/fa prediabetic model at 10 mg/kg, po qd for 15 days by microarray analysis relative to control; type: functional
Rattus norvegicus [34] = assay: Effect on AADAT gene expression in epididymal white adipose tissue of Zucker rat sub-chronic fa/fa prediabetic model at 10 mg/kg, po qd for 15 days by microarray analysis relative to control; type: functional

Sequence of Sodium channel protein type 2 subunit alpha (Homo sapiens) (Q99250 whole entry, looked up): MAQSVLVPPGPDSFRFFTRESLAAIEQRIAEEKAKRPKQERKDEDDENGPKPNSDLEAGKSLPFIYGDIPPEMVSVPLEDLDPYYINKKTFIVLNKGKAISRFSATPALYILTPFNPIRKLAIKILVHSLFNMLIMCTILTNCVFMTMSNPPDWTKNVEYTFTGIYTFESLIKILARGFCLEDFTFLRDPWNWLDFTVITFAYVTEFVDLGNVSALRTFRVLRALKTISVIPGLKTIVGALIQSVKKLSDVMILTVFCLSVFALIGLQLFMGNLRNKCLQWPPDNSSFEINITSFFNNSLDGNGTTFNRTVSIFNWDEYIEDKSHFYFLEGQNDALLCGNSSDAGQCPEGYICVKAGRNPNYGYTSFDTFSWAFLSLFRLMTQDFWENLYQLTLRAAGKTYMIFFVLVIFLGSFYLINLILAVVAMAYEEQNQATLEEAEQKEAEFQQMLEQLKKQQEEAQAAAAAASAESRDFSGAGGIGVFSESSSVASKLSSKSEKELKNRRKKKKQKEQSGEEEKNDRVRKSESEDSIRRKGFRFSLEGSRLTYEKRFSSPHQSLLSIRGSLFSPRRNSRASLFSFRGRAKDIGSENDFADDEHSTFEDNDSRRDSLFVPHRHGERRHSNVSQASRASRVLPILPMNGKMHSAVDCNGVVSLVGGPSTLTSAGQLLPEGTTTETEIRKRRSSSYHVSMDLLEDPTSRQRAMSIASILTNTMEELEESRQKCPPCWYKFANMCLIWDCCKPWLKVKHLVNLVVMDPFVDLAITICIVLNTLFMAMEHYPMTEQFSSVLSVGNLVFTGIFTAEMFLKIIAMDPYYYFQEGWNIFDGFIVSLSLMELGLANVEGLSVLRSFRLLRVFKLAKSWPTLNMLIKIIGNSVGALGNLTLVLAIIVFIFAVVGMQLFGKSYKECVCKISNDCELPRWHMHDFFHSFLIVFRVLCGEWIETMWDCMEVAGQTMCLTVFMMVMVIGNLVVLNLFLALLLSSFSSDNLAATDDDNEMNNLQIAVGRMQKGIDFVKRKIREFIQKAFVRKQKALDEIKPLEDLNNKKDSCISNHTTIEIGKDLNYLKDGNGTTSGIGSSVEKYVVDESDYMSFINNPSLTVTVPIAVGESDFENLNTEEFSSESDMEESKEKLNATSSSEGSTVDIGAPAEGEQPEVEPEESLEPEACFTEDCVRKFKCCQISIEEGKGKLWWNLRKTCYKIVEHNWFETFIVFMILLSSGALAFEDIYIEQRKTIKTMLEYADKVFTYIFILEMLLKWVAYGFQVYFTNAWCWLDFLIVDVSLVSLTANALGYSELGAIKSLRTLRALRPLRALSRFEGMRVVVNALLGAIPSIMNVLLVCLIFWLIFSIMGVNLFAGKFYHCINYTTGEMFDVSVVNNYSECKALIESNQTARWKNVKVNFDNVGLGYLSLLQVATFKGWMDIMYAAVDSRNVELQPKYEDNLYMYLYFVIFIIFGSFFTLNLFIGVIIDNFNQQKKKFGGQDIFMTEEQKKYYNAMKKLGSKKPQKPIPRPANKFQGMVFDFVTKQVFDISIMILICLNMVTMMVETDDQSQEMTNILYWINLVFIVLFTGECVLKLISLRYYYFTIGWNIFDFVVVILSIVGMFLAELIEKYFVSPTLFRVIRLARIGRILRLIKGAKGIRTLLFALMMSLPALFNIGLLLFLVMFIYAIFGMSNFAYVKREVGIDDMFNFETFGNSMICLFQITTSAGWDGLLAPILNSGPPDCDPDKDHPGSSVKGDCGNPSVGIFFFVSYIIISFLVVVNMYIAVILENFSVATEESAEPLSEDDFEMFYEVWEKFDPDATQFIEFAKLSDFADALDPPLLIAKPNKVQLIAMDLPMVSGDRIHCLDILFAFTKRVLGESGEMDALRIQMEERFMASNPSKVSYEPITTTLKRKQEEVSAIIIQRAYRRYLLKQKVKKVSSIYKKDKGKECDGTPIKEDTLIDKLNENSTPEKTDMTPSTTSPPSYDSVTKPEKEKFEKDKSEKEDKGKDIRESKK

SMILES: CN1CC[C@@H](N2C(=O)S/C(=C\c3ccc4c(cnn4Cc4ccc(Cl)cc4C(F)(F)F)c3)C2=O)[C@H](F)C1
- Activity (Rattus norvegicus [1]): -67%
- Activity [2]: inactive
- Cmax [3]: 829 ng/mL
- AUC(0-t) at 24 h [4]: 34500 ng·h/mL
- Activity (Rattus norvegicus [5]): 0.7 µg/L
- Cmax [6]: 1220 ng/mL
- Cmax [7]: 8380 ng/mL
- Activity (Rattus norvegicus [8]): 525 g
- Activity (Rattus norvegicus [9]): 561 g
- Activity (Rattus norvegicus [10]): 17.8 g
- Activity (Rattus norvegicus [11]): 8.7 g
- Activity (Rattus norvegicus [12]): 72.7 µg
- Activity (Rattus norvegicus [13]): 198 mg/dL
- Activity (Rattus norvegicus [14]): 203 mg/dL
- concentration at 264 h [15]: 1700 ng/g
- Activity (Rattus norvegicus [16]): 8.6%
- AUC(0-t) at 24 h [17]: 16900 ng·h/mL
- AUC at 24 h [18]: 31600 ng·h/mL
- Activity (Rattus norvegicus [19]): 159.1 g
- Activity (Rattus norvegicus [20]): 3.29 g
- Activity (Rattus norvegicus [21]): 223 mg/dL
- Activity (Rattus norvegicus [22]): 145 mg/dL
- Activity (Rattus norvegicus [23]): 29.5 mg/dL
- Activity (Rattus norvegicus [24]): Dose-dependent effect
- fold change (FC) (Rattus norvegicus [25]): 1.568
- fold change (FC) (Rattus norvegicus [26]): 1.257
- fold change (FC) (Rattus norvegicus [27]): 1.226
- fold change (FC) (Rattus norvegicus [28]): 1.379
- fold change (FC) (Rattus norvegicus [29]): -1.405
- fold change (FC) (Rattus norvegicus [30]): 1.203
- fold change (FC) (Rattus norvegicus [31]): -1.216
- fold change (FC) (Rattus norvegicus [32]): -1.413
- fold change (FC) (Rattus norvegicus [33]): -1.374
- fold change (FC) (Rattus norvegicus [34]): 2.931
